According to patent US6310093A (priority 1998, dated 2001):

Experiments:
[1] = tested on: mixed glial-neuronal cultures; assay: Glutamate production in intact mixed glial-neuronal cultures with added glutamine; assay type: cell-based, mouse (Swiss Webster)
Procedure: Added glutamate (15 μM) was rapidly cleared from the medium of the mixed glial-neuronal cultures (FIG. 1). The uptake again fit to a first order process and occurred with a rate constant of 0.072 min^-1. […] When the intact mixed cultures were maintained in the absence or presence of added 2 mM glutamine, they also maintained steady state concentrations of glutamate below 1 μM (0.37±0.06 μM and 0.83±0.47 μM respectively). Thus, from the steady state equation, the rates of glutamate production were estimated to be 0.027 μM/min (11 pmol/min) in the absence of added glutamine and 0.060 μM/min (24 pmol/min) in the presence of 2 mM glutamine.
(§1) Measurements of glutamate and glutamine concentrations, as well as of the release of the cytoplasmic marker enzyme, lactate dehydrogenase (LDH), were made with the medium of mixed neuronal-astrocyte cultures exposed to hypoxic and control conditions, with and without the addition of 2 mM glutamine. For comparative purposes, the measurements were made in mixed cultures in which complete neuronal death was caused by a 5h exposure to 500 μM NMDA. The first glutamate measurement was made at the end of hypoxia (5h with mixed cultures, 7h with astrocytes), and the second at 19 h after the subsequent return of oxygen. If added, glutamine was present during and after hypoxia. LDH released by the experimental treatment was measured at 24 h, and is expressed as a percentage of the total cellular content (neurons in mixed cultures, and glia in glial cultures). To verify the neuronal origin of LDH and glutamate, similar experiments were performed on cultures that only contained glia.
Pre-column derivatization with o-phthalaldehyde (OPA, Sigma) and separation by reversed phase HPLC was used. A Gilson HPLC was fitted with a Hewlett-Packard model 1046A fluorimetric detector (excitation 340 nm, emission 420 nm). Medium was collected from cell culture at various times, and frozen at -80° C., prior to dilution of 5 or 10 μl into auto-sampler vials containing 40 or 45 μl dimethylformamide:water 1:3 (derivatives with 2-mercaptoethanol) or 1:9 (derivatives with N-acetyl-L-cysteine). For analysis of the derivatives formed with 2-mercaptoethanol, samples were reacted according to published methods (Newcomb, R. (1989) LC GC 7, 570-578; Lindroth, P., and Mopper. K., (1979) Anal. Chem. 51, 1667-1674.), and a gradient of 0-40% methanol in 1.25 mM sodium phosphate pH 6.2 over 20 min was used to elute the derivatives from a 4.5×250 mm Beckman Ultrasphere octadecylsilica column (dp 5 μm) at 1 ml/min. For analysis of the derivatives formed with N-acetyl-L-cysteine (Bruckner), samples were reacted with 25 μl of 1 mg/ml OPA, and 50 μl of 1 mg/ml N-acetyl-L-cysteine (Fluka) in 0.5 M potassium borate pH 10.0. […]
In cultures where glutamate concentrations are (within error) constant, d[Glu]/dt is close to zero, and cellular production of medium glutamate is balanced by its removal, such that glutamate production can be calculated from the steady state equation: […]
Calculations were performed using the slopes of the regression lines which describe the rate constants for glutamate removal and the mean values for culture medium glutamate concentrations. […] For comparative purposes, glutamate production rates can be expressed as pmol of glutamate produced per min in each culture. […]

[2] = tested on: glial cultures (astrocytes); assay: Glutamate and cell death in glial cultures exposed to hypoxia with glutamine; assay type: cell-based, mouse (Swiss Webster); details: for Glu: hypoxia, 2 mM Gln
Procedure: as §1
Astrocytes were cultured from cortical cell suspensions from 1-2 day old Swiss Webster mouse pups. Mixed cultures of neurons and astrocytes were obtained by plating cortical neurons from embryonic day 15-16 mice on confluent astrocyte monolayers. Pure neuronal cultures were made from the same embryonic cortical cell suspensions; astrocyte growth was inhibited by adding cytosine arabinoside and decreasing serum in the medium. For survival, neuronal cultures were fed with glial conditioned medium. Neuronal cultures were used for experiments at 11-15 days in vitro, and mixed cultures at 13-15 days after plating the neurons.
Hypoxia was carried out at 37° C. in an anoxic chamber (<0.2% oxygen; Forma Scientific). Before each experiment, the medium was pre-equilibrated with an anoxic gas mixture containing 5% CO2, 85% N2 and 10% H2 and incubated at 37° C. […] The oxygen tension in the anoxic chamber was monitored using an oxygen electrode (Model MI-730; Microelectrodes Inc.). […]

glutaminase = details: Kovacevic and McGiven, 1983; read-out: Km of glutaminase for glutamine; cited from earlier work
[3] = Table 2, glial-neuronal, 2 mM Gln

With `NC(=O)CC[C@H](N)C(=O)O` [Gln, glutamine] the Glu ([1]; 2 mM Gln, 5 h, mixed cultures, no hypoxia) was 0.83 ± 0.47 µM, the cytotoxicity at 2000 µM ([1]; Mus musculus, 24 h, read-out: % cell death (LDH)) was 17.6% and the Glutamate concentration [1, 3] was 0.83 ± 0.47. The “Glutamate production (S)” value [1, 3] was 0.06, the “glutamate production per culture” value ([1]; mixed, 2 mM glutamine) was 24 pmol/min and the cytotoxicity at 2000 µM ([2]; Mus musculus, Astrocyte, 24 h, read-out: % cell death (LDH)) was 2 to 5%. For the same molecule, the Glu ([2]; 7 h) was 0.39 ± .09 µM, the Glu ([2]; 24 h) was 0.39 ± 0.07 µM and the Km (glutaminase) was 2 to 8 mM.
